pEC50, pIC50: −log10 of the molar value.
Assays:
[1] = system: HT-29 cells (colorectal adenocarcinoma); assay: Inhibition of cancer cell proliferation, HT-29 (CellTiterGlo, 72 hours); format: cell-based; conditions: Homo sapiens
Method: Measurement of Inhibition of Cancer Cell Proliferation (HT-29/Colorectal Adenocarcinoma)
The following protocol used an HT-29 cell line, which cell line is a model for colorectal adenocarcinoma. HT-29 cells were split and 3000 cells in 100 μl of growth medium were added per well of a flat-bottom 96-well plate. A two-fold test compound solution in serum-free RPM1640 was made, starting at 5,000 nM. Then, 3-fold serial dilutions were made across the plate from well 1 to well 11. Well 12, the last well in a row on the plate, was left as untreated control. 100 μl compound solutions were then transferred to the wells, so the total volume of media was 200 μl per well. Plates were returned to a 37° C. incubator, and the cells were cultured for 72 hours. To measure cell proliferation after 72 hours, media was discarded from the plates, 50 μl/well of fresh medium was added, and 50 μl CellTiterGlo solution was added (Promega Cat#G7573). The plate was covered with a dark lid and incubated for 10 min. A white sealing tape was applied to the bottom of the plate, and the plate was read in a luminescence plate reader. […] A 2-fold serial dilution was used to generate 8 cell densities from 50,000-390 cells per well in 50 μl media. 50 μl CellTiterGlo was added per well, and the plate was read in a luminescence plate reader after 10 min. The reading was plotted vs. cell number to generate a standard curve and the equation of the curve fit. The compound-treated sample luminescence readings were converted to cell numbers using the curve-fit equation. The percent of inhibition, using untreated control as 100% growth, was then calculated. GI50 was then calculated by GraphPad Prism.

MEK1 activated ERK1 = target: T1, MEK1 activated ERK1 (Homo sapiens, UniProt P27361); assay: Omnia continuous-read kinase assay for potency against MEK1 activated ERK1; format: biochemical; conditions: MEK1 activated ERK1, ATP at KM; read-out: ERK1 Omnia WT ATP KM IC50
T1 construct: purchased Millipore (Billerica, Mass.) 14-439-K
Method in brief: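 Apparent IC50 came from initial reaction slopes (RFU vs time) plotted against log inhibitor with a variable-slope fit. Reactions were started with ERK1 (4 nM final) added to 50 μM ATP, roughly at its appKM, and 10 μM Sox-conjugated ST17 peptide in 20 mM Tris pH 7.5, 5 mM MgCl2. Fluorescence was monitored every 71 seconds.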

[2] = system: ERK1/2 phosphorylation of p90RSK in HT29 cells; assay: pRSK MSD Assay in HT29 cells; format: cell-based; conditions: Homo sapiens, HT-29, read-out: ERK1/ERK2 PRSK MSD HT29 EC50
Method in brief: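 Phospho-RSK level, read by electrochemiluminescence on RSK-antibody-coated MSD plates with a phospho-RSK/Sulfo-tag detection pair, reports cellular ERK1/2 activity. HT29 cells, kept overnight in 0.1% FBS medium, were exposed to compound for 120 min at 37° C before lysis.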

T1 sequence (P27361 whole entry): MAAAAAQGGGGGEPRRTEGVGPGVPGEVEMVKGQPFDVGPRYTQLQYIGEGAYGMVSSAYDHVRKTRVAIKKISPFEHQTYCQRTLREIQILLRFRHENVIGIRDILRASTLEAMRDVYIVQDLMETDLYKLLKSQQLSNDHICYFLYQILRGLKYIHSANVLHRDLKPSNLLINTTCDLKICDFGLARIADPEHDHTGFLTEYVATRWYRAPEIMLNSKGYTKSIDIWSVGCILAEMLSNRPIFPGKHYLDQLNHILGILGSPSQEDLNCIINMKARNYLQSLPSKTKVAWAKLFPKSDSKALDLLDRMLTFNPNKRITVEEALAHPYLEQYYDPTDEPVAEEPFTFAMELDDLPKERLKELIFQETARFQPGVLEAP

GI50 [1] | pIC50 (MEK1 activated ERK1) | pEC50 [2] | Structure (SMILES)
> 1 µM | 6.30 to 7.00 | < 6.00 | C=CC(=O)Nc1ccccc1Nc1nc(Nc2cc(C(N)=O)c(OCCCNC(=O)CCCC(=O)NCCCOCCOCCOCCCNC(=O)CCCC[C@@H]3SC[C@@H]4NC(=O)N[C@@H]43)cc2C)ncc1Cl [Compound I-299, N^1-(3-(4-((4-((2-acrylamidophenyl)amino)-5-chloropyrimidin-2-yl)amino)-2-carbamoyl-5-methylphenoxy)propyl)-N^5-(15-oxo-19-((3aS,4S,6aR)-2-oxohexahydro-1H-thieno[3,4-d]imidazol-4-yl)-4,7,10-trioxa-14-azanonadecyl)glutaramide]
0.501 to 0.999 µM | 6.00 to 6.30 | < 6.00 | C=CC(=O)N(C)c1ccccc1Nc1nc(N[C@@H]2CCC[C@H](C(N)=O)C2)ncc1Cl (racemic) [Compound I-105, Rac-cis-3-((5-chloro-4-((2-(N-methylacrylamido)phenyl)amino)pyrimidin-2-yl)amino)cyclohexanecarboxamide]
0.101 to 0.5 µM | 6.30 to 7.00 | 6.30 to 7.00 | C=CC(=O)Nc1ccccc1Nc1nc(Nc2cc(C(N)=O)ccc2C)ncc1C [Compound I-224, 3-(4-(2-acrylamidophenylamino)-5-methylpyrimidin-2-ylamino)-4-methyl benzamide]
> 1 µM | 6.00 to 6.30 | < 6.00 | C=CC(=O)Nc1ccccc1Nc1nc(Nc2ccc(NC(=O)CCCC(=O)NCCCOCCOCCOCCCNC(=O)CCCC[C@H]3SC[C@H]4NC(=O)N[C@H]43)cc2OC)ncc1Cl [Compound I-301, N^1-(4-((4-((2-acrylamidophenyl)amino)-5-chloropyrimidin-2-yl)amino)-3-methoxyphenyl)-N^5-(15-oxo-19-((3aR,4R,6aS)-2-oxohexahydro-1H-thieno[3,4-d]imidazol-4-yl)-4,7,10-trioxa-14-azanonadecyl)glutaramide]
0.101 to 0.5 µM | 6.30 to 7.00 | 6.30 to 7.00 | C=CC(=O)Nc1ccccc1Nc1nc(NC2CCN(C=O)CC2)ncc1C(F)(F)F [Compound I-11, N-(2-((2-((1-formylpiperidin-4-yl)amino)-5-(trifluoromethyl)pyrimidin-4-yl)amino)phenyl)acrylamide]
0.101 to 0.5 µM | > 7.00 | 6.30 to 7.00 | C=CC(=O)Nc1cc(F)ccc1Nc1nc(N[C@@H]2CCC[C@H](C(N)=O)C2)ncc1C(F)(F)F (racemic) [Compound I-5, Rac-cis-3-((4-((2-acrylamido-4-fluorophenyl)amino)-5-(trifluoromethyl)pyrimidin-2-yl)amino)cyclohexanecarboxamide]
> 1 µM | 6.30 to 7.00 | < 6.00 | C=CC(=O)Nc1ccccc1Nc1nc(Nc2ccc(N(CCN)C(C)=O)cc2OC)ncc1Cl [Compound I-168, N-(2-((2-((4-(N-(2-aminoethyl)acetamido)-2-methoxyphenyl)amino)-5-chloropyrimidin-4-yl)amino)phenyl)acrylamide]
0.501 to 0.999 µM | 6.30 to 7.00 | 6.30 to 7.00 | C=CC(=O)Nc1ccccc1Nc1nc(Nc2ccc(F)cc2C)ncc1Cl [Compound I-209, N-(2-((5-chloro-2-((4-fluoro-2-methylphenyl)amino)pyrimidin-4-yl)amino)phenyl)acrylamide]
0.101 to 0.5 µM | > 7.00 | > 7.00 | C=CC(=O)Nc1ccccc1Nc1nc(N[C@H]2CCCN(C=O)C2)ncc1Cl [Compound I-122, (S)—N-(2-((5-chloro-2-((1-formylpiperidin-3-yl)amino)pyrimidin-4-yl)amino)phenyl)acrylamide]
> 1 µM | 6.30 to 7.00 | < 6.00 | C=CC(=O)Nc1ccccc1Nc1nc(NC2CCN(C(=O)CCCC(=O)NCCCOCCOCCOCCCNC(=O)CCCC[C@@H]3SC[C@@H]4NC(=O)N[C@@H]43)CC2)ncc1Cl [Compound I-300, 5-(4-((4-((2-acrylamidophenyl)amino)-5-chloropyrimidin-2-yl)amino)piperidin-1-yl)-5-oxo-N-(15-oxo-19-((3aS,4S,6aR)-2-oxohexahydro-1H-thieno[3,4-d]imidazol-4-yl)-4,7,10-trioxa-14-azanonadecyl)pentanamide]
> 1 µM | 6.30 to 7.00 | 6.00 to 6.30 | C=CC(=O)Nc1ccccc1Nc1nc(Nc2ccc(N3CCC[C@@H]3C(N)=O)cc2C#N)ncc1Cl [Compound I-179, (R)-1-(4-((4-((2-acrylamidophenyl)amino)-5-chloropyrimidin-2-yl)amino)-3-cyanophenyl)pyrrolidine-2-carboxamide]
0.101 to 0.5 µM | 6.30 to 7.00 | 6.30 to 7.00 | C=CC(=O)Nc1ccccc1Nc1nc(NC2CCN(S(C)(=O)=O)CC2)ncc1Cl [Compound I-117, N-(2-((5-chloro-2-((1-(methylsulfonyl)piperidin-4-yl)amino)pyrimidin-4-yl)amino)phenyl)acrylamide]
0.501 to 0.999 µM | 6.30 to 7.00 | 6.30 to 7.00 | C=CC(=O)Nc1ccccc1Nc1nc(Nc2ccc(NS(C)(=O)=O)cc2OC)ncc1Cl [Compound I-185, N-(2-((5-chloro-2-((2-methoxy-4-(methylsulfonamido)phenyl)amino)pyrimidin-4-yl)amino)phenyl)acrylamide]
> 1 µM | 6.30 to 7.00 | 6.00 to 6.30 | C=CC(=O)Nc1ccccc1Nc1nc(Nc2ccc(NC(=O)COC(C)=O)cc2OC)ncc1Cl [Compound I-183, 2-((4-((4-((2-acrylamidophenyl)amino)-5-chloropyrimidin-2-yl)amino)-3-methoxyphenyl)amino)-2-oxoethyl acetate]
0.101 to 0.5 µM | 6.30 to 7.00 | 6.30 to 7.00 | C=CC(=O)Nc1ccccc1Nc1nc(NC2CCN(C(C)=O)CC2)ncc1Cl [Compound I-116, N-(2-((2-((1-acetylpiperidin-4-yl)amino)-5-chloropyrimidin-4-yl)amino)phenyl)acrylamide]
0.101 to 0.5 µM | 6.30 to 7.00 | 6.30 to 7.00 | C=CC(=O)Nc1ccccc1Nc1nc(NC2CCC(F)(F)CC2)ncc1Cl [Compound I-127, N-(2-((5-chloro-2-((4,4-difluorocyclohexyl)amino)pyrimidin-4-yl)amino)phenyl)acrylamide]
> 1 µM | 6.30 to 7.00 | < 6.00 | C=CC(=O)Nc1ccccc1Nc1nc(Nc2ccc(N(CC)C(C)=O)cc2OC)ncc1Cl [Compound I-155, N-(2-((5-chloro-2-((4-(N-ethylacetamido)-2-methoxyphenyl)amino)pyrimidin-4-yl)amino)phenyl)acrylamide]
> 1 µM | 6.30 to 7.00 | 6.00 to 6.30 | C=CC(=O)Nc1cc(OC)ccc1Nc1nc(Nc2ccc(N3CCCN(C(=O)OC(C)(C)C)CC3)cc2C#N)ncc1Cl [Compound I-156, tert-butyl 4-(4-((4-((2-acrylamido-4-methoxyphenyl)amino)-5-chloropyrimidin-2-yl)amino)-3-cyanophenyl)-1,4-diazepane-1-carboxylate]
> 1 µM | 6.30 to 7.00 | < 6.00 | C=CC(=O)Nc1ccccc1Oc1nc(NC(C)(C)C)ncc1C(N)=O [Compound I-267, 4-(2-acrylamidophenoxy)-2-(tert-butylamino)pyrimidine-5-carboxamide]

— patent US9561228B2 (Celgene Avilomics Research, Inc., priority 2013, dated 2017)
